Assays:
[1] = biological target: T1, human FAAH (Fatty Acid Amide Hydrolase) (Homo sapiens (Human), UniProt O00519); assay: FAAH inhibition, human FAAH CHO cell lysate (AAMCA fluorescence); assay type: biochemical
Description: (§1) To assist in assay development stable cell lines for human, murine and rat full length FAAH were developed. […] The full length FAAH was subcloned into the mammalian expression vector, pcDEF.neo, using XbaI and EcoRI restriction sites and used for stable cell line generation.
(§2) The full length murine FAAH was subcloned into the mammalian expression vector, pcDEFneo using either EcoRI (murine) or KpnI and EcoRI (rat) restriction sites. Chinese hamster ovary cells (CHO) were transfected following manufacturers protocol (AMAXA). Forty eight hours post transfection, cells were trypsinized and transferred to 96 well plates in Iscove's DMEM media supplemented with 2 mM Glutamine, 10% fetal calf serum, 1 mg/ml geneticin and HT Supplement (0.1 mM sodium hypoxanthine, 0.016 mM thymidine) in order to isolate single clones. […] Following removal of tissue culture media cells were dislodged following addition of Cellstripper (Mediatech, Inc. Manassas, Va.) and transferred to 96 well black clear bottom assay plate, centrifuged at 1,000 rpm for 3 mins and media removed and replaced with assay buffer (50 mM Tris pH8.0, 1 mM EDTA, 0.1% fatty acid free BSA). The reaction was initiated by addition of fluorescent substrate, AMC Arachidonoyl Amide (Cayman Chemical, Ann Arbor, Mich.) to 1 μM and reaction allowed to proceed for 2 hours at room temperature. Release of fluorescence was monitored in a CytoFluor Multiplate Reader.
CHO cells expressing FAAH were used to prepare either crude cell lysate or microsome fractions. To harvest cells, tissue culture media was decanted, the monolayer washed three times with Ca^++Mg^++ free PBS and cells recovered after 15 min in enzyme free dissociation media (Millipore Corp, Billerica, Mass.). Cells were collected by centrifuging at 2000 rpm for 15 min, and the cell pellet re-suspended with 50 mM HEPES (pH 7.4) containing 1 mM EDTA and the protease inhibitors aprotinin (1 mg/ml) and leupeptin (100 μM). The suspension was sonicated at 4° C. and the cell lysate recovered after centrifuging at 12,000×g (14,600 rpm, SS34 rotor) for 20 min at 4° C. to form a crude pellet of cell debris, nuclei, peroxisomes, lysosomes, and mitochondria; the supernatant or cell lysate was used for FAAH enzyme assay. In some eases, microsomes fractions enriched in FAAH were prepared by centrifuging the cell lysate further at 27,000 rpm (100,000×g) in SW28 rotor for 50 minutes at 4° C. The pellet containing FAAH-enriched microsomes was re-suspend in 50 mM HEPES, (pH 7.4) 1 mM EDTA, and any remaining DNA sheared by passage of material through a 23 gauge needle and aliquots of enzyme were store at −80° C. prior to use.
(§3) Assays are performed on either cell lysate or microsome fractions prepared as described or in whole cell format employing either the fluorescent substrate AAMCA (Cayman chemical, Ann Arbor, Mich.,) or ^3H-anandamide ([ETHANOLAMINE-1-3H] American Radiolabeled Chemicals; 1 mCi/ml). […] AAMCA substrate was used to achieve a final concentration of 1 μM and reaction allowed to proceed at room temperature for 1-3 hours. […] Whole cell assay is conducted with cells harvested after rinsing tissue culture flasks three times with Ca^++Mg^++ free PBS, incubating for 10 min in Enzyme free dissociation media and centrifuging for 5 minutes at 1,000 rpm in table top centrifuge. Cells are resuspended in assay buffer at desired cell number in (4×10^4 cells/assay in 96-well format; 1×10^4 cells/assay in 384-well format) and assayed as described.
Alternatively, assays are performed using anandamide [ethanolamine 1-^3H] (specific activity of 10 Ci/mmol) diluted with cold anandamide to achieve a final assay concentration of 1 μM anandamide (˜50,000 cpm). Enzyme (CHO cell lysate, brain or liver homogenate) is incubated in assay buffer (50 mM Phosphate, pH 8.0, 1 mM EDTA, 200 mM KCl, 0.2% glycerol, 0.1% fatty acid free BSA) with inhibitor at 25° C. for 30 minutes.

[2] = biological target: T1, human FAAH (Fatty Acid Amide Hydrolase); assay: FAAH inhibition, human FAAH CHO whole cell format; assay type: cell-based
Description: as §1, §2, §3

T1 sequence (O00519 whole entry): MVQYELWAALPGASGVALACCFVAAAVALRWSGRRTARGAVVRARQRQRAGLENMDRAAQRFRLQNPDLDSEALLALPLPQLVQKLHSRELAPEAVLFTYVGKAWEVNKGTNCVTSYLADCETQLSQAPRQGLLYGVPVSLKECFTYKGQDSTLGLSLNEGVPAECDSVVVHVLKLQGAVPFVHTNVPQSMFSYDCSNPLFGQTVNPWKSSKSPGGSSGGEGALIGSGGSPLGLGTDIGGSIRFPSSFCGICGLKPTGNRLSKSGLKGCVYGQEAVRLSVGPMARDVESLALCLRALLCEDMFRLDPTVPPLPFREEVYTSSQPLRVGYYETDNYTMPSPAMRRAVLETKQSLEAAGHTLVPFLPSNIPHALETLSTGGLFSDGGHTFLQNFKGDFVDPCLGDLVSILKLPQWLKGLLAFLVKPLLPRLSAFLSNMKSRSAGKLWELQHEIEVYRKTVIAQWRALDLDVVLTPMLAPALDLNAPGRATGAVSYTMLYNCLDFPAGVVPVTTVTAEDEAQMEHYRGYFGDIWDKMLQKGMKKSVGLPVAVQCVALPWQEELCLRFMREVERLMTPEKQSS

Compound | IC50 [1] | IC50 [2]
COCCOC(=O)N1CCC(c2nc(-c3ccc([S+](C)[O-])cc3)c(Sc3ccc(Cl)cn3)o2)CC1 (stereo not drawn) [Example A7.24, 2-methoxyethyl 4-{5-[(5-chloropyridin-2-yl)sulfanyl]-4-[4-(methylsulfinyl)phenyl]-1,3-oxazol-2-yl}piperidine-1-carboxylate] | 200 nM | 1330 nM
C[S+]([O-])c1ccc(-c2nc(C3CCN(S(C)(=O)=O)CC3)oc2Sc2ccc(Cl)cn2)cc1 (stereo not drawn) [Example A7.19, 5-chloro-2-({4-[4-(methylsulfinyl)phenyl]-2-[1-(methylsulfonyl)piperidin-4-yl]-1,3-oxazol-5-yl}sulfanyl)pyridine] | 287 nM | 3280 nM
C[S+]([O-])c1ccc(-c2nc(C3=CCOCC3)oc2Sc2ccc(Cl)cc2)cc1 (stereo not drawn) [Example C6.3, 5-[(4-chlorophenyl)sulfanyl]-2-(3,6-dihydro-2H-pyran-4-yl)-4-[4-(methylsulfinyl)phenyl]-1,3-oxazole] | 15.9 nM | 31 nM
C[S+]([O-])c1ccc(-c2nc(C3CCN(C(=O)OCCN4CCOCC4)CC3)oc2Sc2ccc(Cl)cn2)cc1 (stereo not drawn) [Example A7.27, 2-(morpholin-4-yl)ethyl 4-{5-[(5-chloropyridin-2-yl)sulfanyl]-4-[4-(methylsulfinyl)phenyl]-1,3-oxazol-2-yl}piperidine-1-carboxylate] | 482 nM | 5010 nM
Clc1ccc(Sc2oc(C3CCOCC3)nc2-c2cnc3[nH]ccc3c2)cc1 [Example B5.4, 5-{5-[(4-chlorophenyl)sulfanyl]-2-(tetrahydro-2H-pyran-4-yl)-1,3-oxazol-4-yl}-1H-pyrrolo[2,3-b]pyridine] | 27.6 nM | 63.8 nM
Clc1ccc(Sc2oc(C3CCOCC3)nc2C2CCNCC2)nc1 [Example A7.31, 5-chloro-2-{[4-(piperidin-4-yl)-2-(tetrahydro-2H-pyran-4-yl)-1,3-oxazol-5-yl]sulfanyl}pyridine] | 10000 nM | ≥ 10000 nM
CS(=O)(=O)c1ccc(-c2nc(C3CCNCC3)oc2Sc2ccc(Cl)cn2)cc1 [Example A7.16, 5-chloro-2-({4-[4-(methylsulfonyl)phenyl]-2-(piperidin-4-yl)-1,3-oxazol-5-yl}sulfanyl)pyridine] | 925 nM | ≥ 10000 nM
CN1CCN(CCOC(=O)N2CCC(c3nc(-c4ccc([S+](C)[O-])cc4)c(Sc4ccc(Cl)cn4)o3)CC2)CC1 (stereo not drawn) [Example A7.28, 2-(4-methylpiperazin-1-yl)ethyl 4-{5-[(5-chloropyridin-2-yl)sulfanyl]-4-[4-(methylsulfinyl)phenyl]-1,3-oxazol-2-yl}piperidine-1-carboxylate] | – | ≥ 10000 nM
O=C(c1ccc(-c2nc(C3CCOCC3)oc2Sc2ccc(Cl)cc2)cc1)N1CC2CC1CO2 (stereo not drawn) [Example B5.18, (4-{5-[(4-chlorophenyl)sulfanyl]-2-(tetrahydro-2H-pyran-4-yl)-1,3-oxazol-4-yl}phenyl)(2-oxa-5-azabicyclo[2.2.1]hept-5-yl)methanone] | – | 375 nM
O=C(c1ccc(-c2nc(C3CCOCC3)oc2Sc2ccc(Cl)cc2)cc1)N1CCC(O)CC1 [Example B5.19, (4-{5-[(4-chlorophenyl)sulfanyl]-2-(tetrahydro-2H-pyran-4-yl)-1,3-oxazol-4-yl}phenyl)(4-hydroxypiperidin-1-yl)methanone] | – | 2670 nM
O=C(c1ccc(-c2nc(C3CCOCC3)oc2Sc2ccc(Cl)cc2)cc1)N1CCSC1 [Example B5.31, (4-{5-{(4-chlorophenyl)sulfanyl]-2-(tetrahydro-2H-pyran-4-yl)-1,3-oxazol-4-yl}phenyl)(1,3-thiazolidin-3-yl)methanone] | – | 1340 nM
CC(C)COC(=O)N1CCC(c2nc(C3CCOCC3)oc2Sc2ccc(Cl)cn2)CC1 [Example A7.36, 2-methylpropyl 4-{5-[(5-chloropyridin-2-yl)sulfanyl]-2-(tetrahydro-2H-pyran-4-yl)-1,3-oxazol-4-yl}piperidine-1-carboxylate] | – | ≥ 10000 nM
CCOC(=O)N1CCC(c2nc(C3CCOCC3)oc2Sc2ccc(Cl)cn2)CC1 [Example A7.34, ethyl 4-{5-[(5-chloropyridin-2-yl)sulfanyl}-2-(tetrahydro-2H-pyran-4-yl)-1,3-oxazol-4-yl}piperidine-1-carboxylate] | – | 150 nM

Results, then the molecule that gave them:

IC50 [1] | IC50 [2] | Compound
146 nM | 737 nM | Clc1ccc(Sc2oc(C3CCOCC3)nc2-c2cn[nH]c2)cc1 [Example B5.8, 5-[(4-chlorophenyl)sulfanyl]-4-(1H-pyrazol-4-yl)-2-(tetrahydro-2H-pyran-4-yl)-1,3-oxazole]
67.5 nM | 771 nM | C[S+]([O-])c1ccc(-c2nc(C3CCN(C(=O)OC(C)(C)C)CC3)oc2Sc2ccc(Cl)cn2)cc1 (stereo not drawn) [Example A7.13, tert-butyl 4-{5-[(5-chloropyridin-2-yl)sulfanyl]-4-[4-(methylsulfinyl)phenyl]-1,3-oxazol-2-yl}piperidine-1-carboxylate]
113 nM | 279 nM | Clc1ccc(Sc2oc(C3CCOCC3)nc2-c2cnc3cc[nH]c3c2)cc1 [Example B5.12, 6-{5-[(4-chlorophenyl)sulfanyl]-2-(tetrahydro-2H-pyran-4-yl)-1,3-oxazol-4-yl}-1H-pyrrolo[3,2-b]pyridine]
– | 1190 nM | COc1ccc(Sc2oc(C3CCOCC3)nc2-c2ccc(C(C)(C)O)nc2)cn1 [Example A7.8, 2-(5-{5-{(6-methoxypyridin-3-yl)sulfanyl]-2-(tetrahydro-2H-pyran-4-yl)-1,3-oxazol-4-yl}pyridin-2-yl)propan-2-ol]
– | 290 nM | CC(C)(O)c1ccc(-c2nc(C3CCOCC3)oc2Oc2ccc(Cl)cc2)cn1 [Example A7.12, 2-{5-[5-(4-chlorophenoxy)-2-(tetrahydro-2H-pyran-4-yl)-1,3-oxazol-4-yl]pyridin-2-yl}propan2-ol]
– | 314 nM | CC(C)(O)c1ccc(-c2nc(C3CCOCC3)oc2Sc2ccc(Cl)cn2)cn1 [Example A7.1, 2-(5-{5-[(5-chloropyridin-2-yl)sulfanyl]-2-(tetrahydro-2H-pyran-4-yl)-1,3-oxazol-4-yl}pyridin-2-yl)propan-2-ol]
– | 9.06 nM | CC(C)(O)c1ccc(-c2nc([C@H]3CC[C@H](CO)CC3)oc2Sc2ccc(Cl)cc2)cn1 [Example B5.35, 2-(5-{5-[(4-chlorophenyl)sulfanyl]-2-[trans-4-(hydroxymethyl)cyclohexyl]-1,3-oxazol-4-yl}pyridin-2-yl)propan-2-ol]
– | 701 nM | CC(C)(O)c1ccc(-c2nc(C3CCOCC3)oc2Cc2ccc(Cl)cc2)cn1 [Example A7.11, 2-{5-[5-(4-chlorobenzyl)-2-(tetrahydro-2H-pyran-4-yl)-1,3-oxazol-4-yl]pyridin-2-yl}propan-2-ol]
– | 454 nM | COc1ccc(Sc2oc(C3CCOCC3)nc2-c2ccc(C(C)(C)O)nc2)nc1 [Example A7.4, 2-(5-{5-[(5-methoxypyridin-2-yl)sulfanyl]-2-(tetrahydro-2H-pyran-4-yl)-1,3-oxazol-4-yl}pyridin-2-yl)propan-2-ol]
– | 185 nM | CC(C)(O)c1ccc(-c2nc([C@H]3CC[C@H](C(C)(C)O)CC3)oc2Sc2ccc(Cl)cc2)cn1 [Example B5.38, 2-(5-{5-[(4-chlorophenyl)sulfanyl]-2-[trans-4-(2-hydroxypropan-2-yl)cyclohexyl]-1,3-oxazol-4-yl}pyridin-2-yl)propan-2-ol]
